Experimental data: the supplement of paper PMC13380429

Experiments:
[1] = tested on: A549-ACE2; assay: drug-induced phospholipidosis relative to tamoxifen; higher = more phospholipidosis
[2] = tested on: Vero E6; assay: cell viability relative to DMSO; higher = less toxic; conditions: 72 h
[3] = tested on: Caco-2; assay: as above; conditions: 72 h
[4] = tested on: Calu-3; assay: as above; conditions: 72 h
[5] = tested on: U2OS; assay: as above; conditions: 72 h
[6] = tested on: HepG2; assay: as above; conditions: 72 h
[7] = tested on: A549-ACE2 infected with SARS-CoV-2; assay: SARS-CoV-2 infection rate relative to DMSO; higher = more infection; conditions: 24 h
[8] = tested on: Vero E6; assay: relative viability EC50 (midpoint between 100% and the lowest measured viability); higher = less toxic; conditions: 72 h
[9] = tested on: Caco-2; assay: as above; conditions: 72 h
[10] = tested on: Calu-3; assay: as above; conditions: 72 h
[11] = tested on: U2OS; assay: as above; conditions: 72 h
[12] = tested on: Vero E6; assay: drug sensitivity score (DSS) for viability; higher = more toxic; extreme values may be limits of the assay; conditions: 72 h
[13] = tested on: Caco-2; assay: as above; conditions: 72 h
[14] = tested on: Calu-3; assay: as above; conditions: 72 h
[15] = tested on: U2OS; assay: as above; conditions: 72 h
[16] = tested on: HepG2; assay: as above; conditions: 72 h
[17] = tested on: A549-ACE2 infected with SARS-CoV-2; assay: morphology score (similarity to uninfected cells); higher = more like uninfected cells; conditions: 24 h
[18] = tested on: A549-ACE2; assay: phospholipidosis EC50; higher = less potent phospholipidosis inducer
[19] = tested on: A549-ACE2 infected with SARS-CoV-2; assay: cell count relative to DMSO; higher = less toxic; conditions: 24 h

CCN1CCN(c2ccc(C(C)(C)NC(=O)c3cc4[nH]c5ccccc5c(=O)c4cc3F)cn2)CC1
drug-induced phospholipidosis ([1]; 0.3 µM, 24 h): 6.26%
drug-induced phospholipidosis ([1]; 0.3 µM, 48 h): 4.42%
drug-induced phospholipidosis ([1]; 0.3 µM, 72 h): 12.4%
drug-induced phospholipidosis ([1]; 0.833333 µM, 24 h): -2.09%
drug-induced phospholipidosis ([1]; 0.833333 µM, 48 h): 0.5%
drug-induced phospholipidosis ([1]; 0.833333 µM, 72 h): 4.2%
drug-induced phospholipidosis ([1]; 3.33333 µM, 24 h): -3.71%
drug-induced phospholipidosis ([1]; 6.66667 µM, 24 h): 11.8%
drug-induced phospholipidosis ([1]; 10 µM, 24 h): 31.3%
drug-induced phospholipidosis ([1]; 30 µM, 24 h): 80.5%
drug-induced phospholipidosis ([1]; 30 µM, 48 h): 67.5%
cell viability ([2]; 1 nM): 109%
cell viability ([2]; 10 nM): 102%
cell viability ([2]; 100 nM): 102%
cell viability ([2]; 1000 nM): 97.2%
cell viability ([2]; 10000 nM): 92%
cell viability ([3]; 1 nM): 102%
cell viability ([3]; 10 nM): 105%
cell viability ([3]; 100 nM): 107%
cell viability ([3]; 1000 nM): 116%
cell viability ([3]; 10000 nM): 86.5%
cell viability ([4]; 1 nM): 96.4%
cell viability ([4]; 10 nM): 87.8%
cell viability ([4]; 100 nM): 92.7%
cell viability ([4]; 1000 nM): 76.7%
cell viability ([4]; 10000 nM): 43.3%
cell viability ([5]; 1 nM): 99.3%
cell viability ([5]; 10 nM): 96.5%
cell viability ([5]; 100 nM): 94.2%
cell viability ([5]; 1000 nM): 105%
cell viability ([5]; 10000 nM): 25.5%
cell viability ([6]; 1 nM): 95.7%
cell viability ([6]; 10 nM): 104%
cell viability ([6]; 100 nM): 103%
cell viability ([6]; 1000 nM): 77%
cell viability ([6]; 10000 nM): 52.9%
SARS-CoV-2 infection rate ([7]; 0.3 µM): 92%
SARS-CoV-2 infection rate ([7]; 3 µM): 34%
SARS-CoV-2 infection rate ([7]; 10 µM): 11%
SARS-CoV-2 infection rate ([7]; 30 µM): 25%
relative viability EC50 [8]: > 10 µM
relative viability EC50 [9]: > 10 µM
relative viability EC50 [10]: 1.18 µM
relative viability EC50 [11]: 3.53 µM
drug sensitivity score [12]: 0
drug sensitivity score [13]: 0
drug sensitivity score [14]: 5.6
drug sensitivity score [15]: 3.7
drug sensitivity score [16]: 5.4
morphology score ([17]; 0.3 µM): 0.33
morphology score ([17]; 3 µM): 0.74
morphology score ([17]; 10 µM): 0.74
morphology score ([17]; 30 µM): 0.53
phospholipidosis EC50 ([18]; 24 h): 11.6 µM
cell count ([19]; 0.3 µM): 102%
cell count ([19]; 3 µM): 93%
cell count ([19]; 10 µM): 97%
cell count ([19]; 30 µM): 72%

C[C@@H](O[C@H]1OCCN(Cc2nn[nH]c2CN(C)C)[C@H]1c1ccc(F)cc1)c1cc(C(F)(F)F)cc(C(F)(F)F)c1
drug-induced phospholipidosis ([1]; 0.3 µM, 24 h): 0.77%
drug-induced phospholipidosis ([1]; 0.3 µM, 48 h): 1.56%
drug-induced phospholipidosis ([1]; 0.3 µM, 72 h): 2.71%
drug-induced phospholipidosis ([1]; 0.833333 µM, 24 h): 3.06%
drug-induced phospholipidosis ([1]; 0.833333 µM, 48 h): 0.335%
drug-induced phospholipidosis ([1]; 0.833333 µM, 72 h): 0.0731%
drug-induced phospholipidosis ([1]; 3.33333 µM, 24 h): 53.9%
drug-induced phospholipidosis ([1]; 3.33333 µM, 48 h): 38.1%
drug-induced phospholipidosis ([1]; 3.33333 µM, 72 h): 32.7%
drug-induced phospholipidosis ([1]; 6.66667 µM, 24 h): 92.5%
drug-induced phospholipidosis ([1]; 6.66667 µM, 48 h): 83.7%
drug-induced phospholipidosis ([1]; 6.66667 µM, 72 h): 80.6%
drug-induced phospholipidosis ([1]; 10 µM, 24 h): 102%
drug-induced phospholipidosis ([1]; 10 µM, 48 h): 91.7%
drug-induced phospholipidosis ([1]; 10 µM, 72 h): 99.1%
cell viability ([2]; 1 nM): 91%
cell viability ([2]; 10 nM): 102%
cell viability ([2]; 100 nM): 95%
cell viability ([2]; 1000 nM): 96.9%
cell viability ([2]; 10000 nM): 82.8%
cell viability ([3]; 1 nM): 97%
cell viability ([3]; 10 nM): 94.6%
cell viability ([3]; 100 nM): 99.9%
cell viability ([3]; 1000 nM): 103%
cell viability ([3]; 10000 nM): 70.7%
cell viability ([4]; 1 nM): 93.6%
cell viability ([4]; 10 nM): 93.9%
cell viability ([4]; 100 nM): 91.8%
cell viability ([4]; 1000 nM): 97.5%
cell viability ([4]; 10000 nM): 75.1%
cell viability ([5]; 1 nM): 98.8%
cell viability ([5]; 10 nM): 96.9%
cell viability ([5]; 100 nM): 105%
cell viability ([5]; 1000 nM): 98.6%
cell viability ([5]; 10000 nM): 75.9%
cell viability ([6]; 1 nM): 90.8%
cell viability ([6]; 10 nM): 91.5%
cell viability ([6]; 100 nM): 87.5%
cell viability ([6]; 1000 nM): 110%
cell viability ([6]; 10000 nM): 69.1%
SARS-CoV-2 infection rate ([7]; 0.3 µM): 94%
SARS-CoV-2 infection rate ([7]; 3 µM): 67%
SARS-CoV-2 infection rate ([7]; 10 µM): 21%
SARS-CoV-2 infection rate ([7]; 30 µM): 29%
relative viability EC50 [8]: > 10 µM
relative viability EC50 [10]: > 10 µM
relative viability EC50 [11]: > 10 µM
drug sensitivity score [12]: 0.7
drug sensitivity score [13]: 1.1
drug sensitivity score [14]: 1.3
drug sensitivity score [15]: 1.1
drug sensitivity score [16]: 0.9
morphology score ([17]; 0.3 µM): 0.33
morphology score ([17]; 3 µM): 0.54
morphology score ([17]; 10 µM): 0.79
morphology score ([17]; 30 µM): 0.29
phospholipidosis EC50 ([18]; 24 h): 3.41 µM
phospholipidosis EC50 ([18]; 48 h): 3.74 µM
phospholipidosis EC50 ([18]; 72 h): 4.73 µM
cell count ([19]; 0.3 µM): 104%
cell count ([19]; 3 µM): 107%
cell count ([19]; 10 µM): 114%
cell count ([19]; 30 µM): 96%
